Experimental data as given in patent US9187490B2, “Dimeric IAP inhibitors” (TetraLogic Pharmaceuticals Corporation, priority 2005, dated 2015).

What follows are compounds tested against T1, XIAP-BIR3 (Homo sapiens, UniProt P98170) (assay: XIAP BIR-3 fluorescence polarization binding assay). Settings: 5 nM AbuRPF-K(5-Fam)-NH2, 40 nM XIAP-BIR3, 15 min RT, pH 7.5; read-out: KD Range.
T1 construct: 40 nM of XIAP-BIR3 for 15 min at RT
T1 sequence (P98170 241-356 limits assumed): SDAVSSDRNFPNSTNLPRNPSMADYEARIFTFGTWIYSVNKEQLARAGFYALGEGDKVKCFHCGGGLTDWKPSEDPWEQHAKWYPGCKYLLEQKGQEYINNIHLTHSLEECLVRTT
Experimental: Following incubation, the polarization values (mP) were measured on a Victor^2V using a 485 nm excitation filter and a 520 nm emission filter. IC50 values were determined from the plot using nonlinear least-squares analysis using GraphPad Prism.
Work on `CNC(C)C(=O)NC(C(=O)N1CCCC1Cc1c(-c2ccc(-c3c(CC4CCCN4C(=O)C(NC(=O)C(C)NC)C(C)(C)C)c4ccc(F)cc4n3CCO)cc2)n(CCO)c2cc(F)ccc12)C(C)(C)C` (single isomer, unassigned) [Entry 60] yielded a Kd of 1000 to 10000 nM. Compound `CC(N)C(=O)NC(C(=O)N1CCCC1Cc1c(-c2ccc(-c3oc4ccccc4c3CC3CCCN3C(=O)C(NC(=O)C(C)N)C(C)C)cc2)oc2ccccc12)C(C)C` (single isomer, unassigned) [Entry 61] has a Kd of over 10000 nM. Work on `CNC(C)C(=O)NC(C(=O)N1CCCC1Cc1c(-c2ccc(-c3c(CC4CCCN4C(=O)C(NC(=O)C(C)NC)C(C)(C)C)c4ccc(F)cc4n3CCO)cc2)n(CCO)c2cc(F)ccc12)C(C)(C)C` (single isomer, unassigned) [Entry 487] yielded a Kd of under 100 nM. With `CC(C)[C@H](NC(=O)[C@H](C)N)C(=O)N1CCC[C@H]1Cc1c(/C=C/c2oc3ccccc3c2C[C@@H]2CCCN2C(=O)[C@@H](NC(=O)[C@H](C)N)C(C)C)oc2ccccc12` [Entry 2] the Kd was under 100 nM. For `CC(C)[C@H](NC(=O)[C@H](C)N)C(=O)N1CCC[C@H]1Cc1c(CCc2oc3ccccc3c2C[C@@H]2CCCN2C(=O)[C@@H](NC(=O)[C@H](C)N)C(C)C)oc2ccccc12` [Entry 3], the Kd was under 100 nM. In the case of `CC(C)[C@H](NC(=O)CN)C(=O)N1CCC[C@H]1Cc1c(-c2ccc(-c3oc4ccccc4c3C[C@@H]3CCCN3C(=O)[C@@H](NC(=O)[C@H](C)N)C(C)C)cc2)oc2ccccc12` [Entry 4], the Kd is reported as under 100 nM. Compound `C[C@H](N)C(=O)N[C@H](C(=O)N1CCC[C@H]1Cc1c(-c2ccc(-c3oc4ccccc4c3C[C@@H]3CCCN3C(=O)[C@@H](NC(=O)[C@H](C)N)C(C)(C)C)cc2)oc2ccccc12)C(C)(C)C` [Entry 7] has a Kd of under 100 nM. In the case of `CN[C@@H](C)C(=O)N[C@H](C(=O)N1CCC[C@H]1Cc1c(-c2ccc(-c3oc4ccccc4c3C[C@@H]3CCCN3C(=O)[C@@H](NC(=O)[C@H](C)NC)C(C)(C)C)cc2)oc2ccccc12)C(C)(C)C` [Entry 8], the Kd is reported as under 100 nM. Compound `CC[C@H](N)C(=O)N[C@H](C(=O)N1CCC[C@H]1Cc1c(-c2ccc(-c3oc4ccccc4c3C[C@@H]3CCCN3C(=O)[C@@H](NC(=O)[C@@H](N)CC)C(C)(C)C)cc2)oc2ccccc12)C(C)(C)C` [Entry 9] has a Kd of 100 to 1000 nM. `CN[C@@H](C)C(=O)N[C@H](C(=O)N1CCC[C@H]1Cc1c(-c2ccc(-c3oc4ccccc4c3C[C@@H]3CCCN3C(=O)[C@@H](NC(=O)[C@H](C)NC)C(C)C)cc2)oc2ccccc12)C(C)C` [Entry 10] showed a Kd of under 100 nM. For `CC[C@H](N)C(=O)N[C@H](C(=O)N1CCC[C@H]1Cc1c(-c2ccc(-c3oc4ccccc4c3C[C@@H]3CCCN3C(=O)[C@@H](NC(=O)[C@@H](N)CC)C(C)C)cc2)oc2ccccc12)C(C)C` [Entry 11], the Kd was under 100 nM. In the case of `C[C@H](N)C(=O)N[C@H](C(=O)N1CCC[C@H]1Cc1c(-c2ccc(-c3oc4ccccc4c3C[C@@H]3CCCN3C(=O)[C@@H](NC(=O)[C@H](C)N)C3CCCCC3)cc2)oc2ccccc12)C1CCCCC1` [Entry 12], the Kd is reported as under 100 nM. `CN[C@@H](C)C(=O)N[C@H](C(=O)N1CCC[C@H]1Cc1c(-c2ccc(-c3oc4ccccc4c3C[C@@H]3CCCN3C(=O)[C@@H](NC(=O)[C@H](C)NC)C3CCCCC3)cc2)oc2ccccc12)C1CCCCC1` [Entry 13] was tested, and the Kd was under 100 nM. `CC[C@H](N)C(=O)N[C@H](C(=O)N1CCC[C@H]1Cc1c(-c2ccc(-c3oc4ccccc4c3C[C@@H]3CCCN3C(=O)[C@@H](NC(=O)[C@@H](N)CC)C3CCCCC3)cc2)oc2ccccc12)C1CCCCC1` [Entry 14] was tested, and the Kd was 100 to 1000 nM. `CN[C@@H](C)C(=O)N[C@H](C(=O)N1CCC[C@H]1Cc1c(-c2ccc(-c3oc4ccccc4c3C[C@@H]3CCCN3C(=O)[C@@H](NC(=O)[C@H](C)NC)[C@@H](C)O)cc2)oc2ccccc12)[C@@H](C)O` [Entry 15] gave a Kd of under 100 nM. For `CN[C@@H](C)C(=O)N[C@H](C(=O)N1CCC[C@H]1Cc1c(-c2ccc(-c3[nH]c4cc(F)ccc4c3C[C@@H]3CCCN3C(=O)[C@@H](NC(=O)[C@H](C)NC)C(C)C)cc2)[nH]c2cc(F)ccc12)C(C)C` [Entry 16], the Kd was under 100 nM. Compound `CC(C)[C@H](NC(=O)[C@H](C)N)C(=O)N1CCC[C@H]1Cc1c(-c2ccc(-c3[nH]c4cc(F)ccc4c3C[C@@H]3CCCN3C(=O)[C@@H](NC(=O)[C@H](C)N)C(C)C)s2)[nH]c2cc(F)ccc12` [Entry 17] has a Kd of under 100 nM. Work on `CN[C@@H](C)C(=O)N[C@H](C(=O)N1CCC[C@H]1Cc1c(-c2ccc(-c3[nH]c4cc(F)ccc4c3C[C@@H]3CCCN3C(=O)[C@@H](NC(=O)[C@H](C)NC)C3CCCCC3)s2)[nH]c2cc(F)ccc12)C1CCCCC1` [Entry 18] yielded a Kd of under 100 nM. Work on `C[C@H](N)C(=O)N[C@H](C(=O)N1CCC[C@H]1Cc1c(-c2ccc(-c3[nH]c4cc(F)ccc4c3C[C@@H]3CCCN3C(=O)[C@@H](NC(=O)[C@H](C)N)C3CCCCC3)cc2)[nH]c2cc(F)ccc12)C1CCCCC1` [Entry 19] yielded a Kd of under 100 nM. Work on `CN[C@@H](C)C(=O)N[C@H](C(=O)N1CCC[C@H]1Cc1c(-c2ccc(-c3[nH]c4cc(F)ccc4c3C[C@@H]3CCCN3C(=O)[C@@H](NC(=O)[C@H](C)NC)C3CCCCC3)cc2)[nH]c2cc(F)ccc12)C1CCCCC1` [Entry 20] yielded a Kd of under 100 nM. Compound `CN[C@@H](C)C(=O)N[C@H](C(=O)N1C[C@H](O)C[C@H]1Cc1c(-c2ccc(-c3[nH]c4ccccc4c3C[C@@H]3C[C@@H](O)CN3C(=O)[C@@H](NC(=O)[C@H](C)NC)C(C)C)cc2)[nH]c2ccccc12)C(C)C` [Entry 21] has a Kd of 100 to 1000 nM. `CN[C@@H](C)C(=O)N[C@H](C(=O)N1C[C@H](O)C[C@H]1Cc1c(-c2ccc(-c3[nH]c4ccccc4c3C[C@@H]3C[C@@H](O)CN3C(=O)[C@@H](NC(=O)[C@H](C)NC)C(C)(C)C)cc2)[nH]c2ccccc12)C(C)(C)C` [Entry 22] was tested, and the Kd was 100 to 1000 nM. For `CN[C@@H](C)C(=O)N[C@H](C(=O)N1CCC[C@H]1Cc1c(-c2ccc(-c3[nH]c4ccc(F)cc4c3C[C@@H]3CCCN3C(=O)[C@@H](NC(=O)[C@H](C)NC)C(C)C)cc2)[nH]c2ccc(F)cc12)C(C)C` [Entry 23], the Kd was under 100 nM. Work on `CN[C@@H](C)C(=O)N[C@H](C(=O)N1C[C@@H](O)C[C@H]1Cc1c(-c2ccc(-c3[nH]c4ccccc4c3C[C@@H]3C[C@H](O)CN3C(=O)[C@@H](NC(=O)[C@H](C)NC)C(C)(C)C)cc2)[nH]c2ccccc12)C(C)(C)C` [Entry 24] yielded a Kd of under 100 nM. In the case of `CN[C@@H](C)C(=O)N[C@H](C(=O)N1CCC[C@H]1Cc1c(-c2ccc(-c3[nH]c4cc(F)ccc4c3C[C@@H]3CCCN3C(=O)[C@@H](NC(=O)[C@H](C)NC)[C@@H](C)OCc3ccccc3)cc2)[nH]c2cc(F)ccc12)[C@@H](C)OCc1ccccc1` [Entry 25], the Kd is reported as under 100 nM. `CN[C@@H](C)C(=O)N[C@H](C(=O)N1CCC[C@H]1Cc1c(-c2ccc(-c3[nH]c4cc(F)ccc4c3C[C@@H]3CCCN3C(=O)[C@@H](NC(=O)[C@H](C)NC)[C@@H](C)OCc3ccccc3)cc2)[nH]c2cc(F)ccc12)[C@@H](C)O` [Entry 26] gave a Kd of under 100 nM. `CN[C@@H](C)C(=O)N[C@H](C(=O)N1CCC[C@H]1Cc1c(-c2ccc(-c3[nH]c4cc(F)ccc4c3C[C@@H]3CCCN3C(=O)[C@@H](NC(=O)[C@H](C)NC)[C@@H](C)O)cc2)[nH]c2cc(F)ccc12)[C@@H](C)O` [Entry 27] showed a Kd of under 100 nM. `CN[C@@H](C)C(=O)N[C@H](C(=O)N1C[C@@H](O)C[C@H]1Cc1c(-c2ccc(-c3[nH]c4cc(F)ccc4c3C[C@@H]3C[C@H](O)CN3C(=O)[C@@H](NC(=O)[C@H](C)NC)[C@@H](C)O)cc2)[nH]c2cc(F)ccc12)[C@@H](C)O` [Entry 28] gave a Kd of under 100 nM. `CN[C@@H](C)C(=O)N[C@H](C(=O)N1C[C@@H](O)C[C@H]1Cc1c(-c2ccc(-c3[nH]c4cc(F)ccc4c3C[C@@H]3C[C@H](O)CN3C(=O)[C@@H](NC(=O)[C@H](C)NC)C(C)C)cc2)[nH]c2cc(F)ccc12)C(C)C` [Entry 29] showed a Kd of under 100 nM. Work on `CN[C@@H](C)C(=O)N[C@H](C(=O)N1C[C@@H](O)C[C@H]1Cc1c(-c2ccc(-c3[nH]c4cc(F)ccc4c3C[C@@H]3C[C@H](O)CN3C(=O)[C@@H](NC(=O)[C@H](C)NC)C(C)(C)C)cc2)[nH]c2cc(F)ccc12)C(C)(C)C` [Entry 30] yielded a Kd of under 100 nM. With `CN[C@@H](C)C(=O)N[C@H](C(=O)N1CCC[C@H]1Cc1c(-c2ccc(-c3[nH]c4cc(F)ccc4c3C[C@@H]3CCCN3C(=O)[C@@H](NC(=O)[C@H](C)NC)[C@@H](C)OCc3ccccc3)cc2)[nH]c2cc(F)ccc12)[C@@H](C)O` [Entry 32] the Kd was under 100 nM. `CN[C@@H](C)C(=O)N[C@H](C(=O)N1CCC[C@H]1Cc1c(-c2ccc(-c3[nH]c4cc(F)ccc4c3C[C@@H]3CCCN3C(=O)[C@@H](NC(=O)[C@H](C)NC)[C@@H](C)OCc3ccccc3)cc2)[nH]c2cc(F)ccc12)[C@@H](C)OCc1ccccc1` [Entry 33] showed a Kd of under 100 nM. `CN[C@@H](C)C(=O)N[C@H](C(=O)N1C[C@@H](O)C[C@H]1Cc1c(-c2ccc(-c3[nH]c4ccccc4c3C[C@@H]3C[C@H](O)CN3C(=O)[C@@H](NC(=O)[C@H](C)NC)C(C)(C)C)cc2)[nH]c2ccccc12)C(C)(C)C` [Entry 34] was tested, and the Kd was under 100 nM. Compound `CN[C@@H](C)C(=O)N[C@H](C(=O)N1CCC[C@H]1Cc1c(-c2ccc(-c3[nH]c4ccc(F)cc4c3C[C@@H]3CCCN3C(=O)[C@@H](NC(=O)[C@H](C)NC)C(C)C)cc2)[nH]c2ccc(F)cc12)C(C)C` [Entry 35] has a Kd of under 100 nM. With `CN[C@@H](C)C(=O)N[C@H](C(=O)N1C[C@H](O)C[C@H]1Cc1c(-c2ccc(-c3[nH]c4ccccc4c3C[C@@H]3C[C@@H](O)CN3C(=O)[C@@H](NC(=O)[C@H](C)NC)C(C)(C)C)cc2)[nH]c2ccccc12)C(C)(C)C` [Entry 36] the Kd was 100 to 1000 nM. In the case of `CN[C@@H](C)C(=O)N[C@H](C(=O)N1C[C@H](O)C[C@H]1Cc1c(-c2ccc(-c3[nH]c4ccccc4c3C[C@@H]3C[C@@H](O)CN3C(=O)[C@@H](NC(=O)[C@H](C)NC)C(C)C)cc2)[nH]c2ccccc12)C(C)C` [Entry 37], the Kd is reported as 100 to 1000 nM. `CN[C@@H](C)C(=O)N[C@H](C(=O)N1CCC[C@H]1Cc1c(-c2ccc(-c3[nH]c4cc(F)ccc4c3C[C@@H]3CCCN3C(=O)[C@@H](NC(=O)[C@H](C)NC)C3CCCCC3)cc2)[nH]c2cc(F)ccc12)C1CCCCC1` [Entry 38] was tested, and the Kd was under 100 nM.

Same assay, conditions: XIAP BIR-3, FIG. 1
In the case of `CC(C)[C@H](NC(=O)[C@H](C)N)C(=O)N1CCC[C@H]1Cc1c(-c2ccc(-c3[nH]c4cc(F)ccc4c3C[C@@H]3CCCN3C(=O)[C@@H](NC(=O)[C@H](C)N)C(C)C)s2)[nH]c2cc(F)ccc12` [Entry 17], the “increase in binding affinity relative to the Smac tetrapeptide (AVPI)” value is reported as 30,000 fold.
